The source of these data is patent publication US12239733B2, “Treatment of protein aggregation myopathic and neurodegenerative diseases by parenteral administration of trehalose” (Seelos Therapeutics, Inc., priority 2013, dated 2025).

Entries after “also recorded” stand apart in the source; their conditions may differ.

The subject of series [1] is transgenic OPMD mice. To be noted: cited from earlier work.
The nature of series [2]: Preclinical pharmacokinetic study: plasma and muscle concentrations of trehalose after intravenous bolus (IV) and oral gavage (PO). It is filed as in vivo, male Sprague-Dawley (SD) rats. How it is done: The plasma and muscle concentrations of trehalose in male Sprague-Dawley (SD) rats was determined after intravenous bolus (IV) and oral gavage (PO) administration.
The study included 42 SD rats (male, 250 to 350 grams in weight, the Shanghai SLAC Laboratory Animal Co. Ltd.). Animals were administered with a volume of 5 ml/kg trehalose formulation (trehalose dihydrate in sterilized water at 200 mg/mL) to achieve a nominal dose of 1 gr/kg, intravenously or orally.
Blood samples were collected after each dose administration and processed for plasma. Muscle samples (hind leg muscle) were collected and homogenized. The concentrations of trehalose in plasma and muscle homogenate samples were analyzed by qualified bioanalytical LC/MS/MS methods.
Plasma concentration data of trehalose was subjected to a non compartmental pharmacokinetic analysis using WinNonlin software program (version 6.3, Pharsight, Mountain View, CA). Zero-time intercept concentration (C0), volume of distribution (Vdss), Clearance (Cl), peak plasma concentrations (Cmax) and the corresponding peak times (Tmax), terminal half-life (T½), mean residence time (MRT) from time zero to the last time point (MRT0-last), MRT from time zero to infinity (MRT0-inf), the area under the plasma concentration-time curve (AUC) from time zero to the last time point (AUC0-last) and AUC from time zero extrapolated to infinity (AUC0-inf) were calculated using the linear/log trapezoidal rule. Nominal sampling times were used to calculate all pharmacokinetic parameters since there was not any deviation larger than 5% between the actual and nominal sampling times.
The values of muscle to plasma concentration and AUC ratio (M/P ratio) were both calculated.

For series [3] the following is noted: oral (ingested); cited from earlier work.
In series [4] the test system is healthy volunteers. To be noted: cited from earlier work.
The subject of series [5] is transgenic HD mice. Conditions: oral, cited from earlier work.
The mark [6] stands for this setting: 0.2%-5% trehalose in drinking water, 5-9 weeks.

For the compound `OC[C@H]1O[C@H](O[C@H]2O[C@H](CO)[C@@H](O)[C@H](O)[C@H]2O)[C@H](O)[C@@H](O)[C@@H]1O` [trehalose, α-G-glucopyranosyl α-D-glucopyranoside], in series [1] (oral trehalose), the “OPMD onset, phenotype, aggregate formation, cell death” value is “delay the OPMD onset, attenuate the disease phenotype, decrease polyalanine protein aggregate formation and decrease cell death”. The “aggregation formation and toxicity of mutant PABPN1 in myocytes” value in series [1] (oral, 2% trehalose in drinking water, 4-6 months) is “significantly reduce aggregation formation and toxicity of the mutant PABPN1 in myocytes”. Moreover, the AUC0-inf/AUC0-last in series [2] (male, Sprague-Dawley, rat, in vivo, iv, 1000 mg/kg) came to 100%. The compound also registered an AUC0-inf in series [2] (rat, in vivo, iv, 1000 mg/kg) of 183000 ng·h/g. Besides, the “plasma concentration of trehalose after oral administration” value in series [2] (rat, in vivo, po) is given as “undetectable”. In addition, the “share of ingested trehalose absorbed into the blood stream” value in series [3] is “Less than 0.5%”. In addition, the safety issues reported result in series [4] (healthy volunteers, oral doses from 10 to 60 gr) is “mild abdominal symptoms”. In addition, the “gastrointestinal effects of high oral amounts” value in series [4] (oral, exceeding 40-50 gram per day, higher than 50 g a day in humans) is “frequently cause diarrhea, bloating and discomfort; also recorded: causes diarrhea and bloating”. In addition, in series [5] (setting [6]), the “motor dysfunction / HD-related motor symptoms” value is “improve motor dysfunction; also recorded: improvement of HD-related motor symptoms”; the “polyglutamine / huntingtin aggregates” value was “reduce polyglutamine aggregates; also recorded: inhibition of formation of intra-nuclear huntingtin aggregates in the brain and liver”. Moreover, the survival result in series [5] (HD mouse model) is “extend survival”.
With `OC[C@H]1O[C@H](O[C@H]2O[C@H](CO)[C@@H](O)[C@H](O)[C@H]2O)[C@H](O)[C@@H](O)[C@@H]1O` [trehalose dihydrate], the tolerability in rats entry in series [2] (1000 mg/kg IV or PO, male SD rats) is reported as “well tolerated”.
